target: T1, RORγt (hRORC LBD) (Homo sapiens, UniProt P51449); experiment: RGA Assay: nuclear receptor transactivation assay, RORγt transactivation of a luciferase reporter; format: cell-based; details: transiently transfected HEK 293 cells, Gal4DBD hRORC LBD, 20-24 hours incubation
T1 construct: expressed in transfected cells; host or cells: HEK 293 (transient cotransfection with pGL4.3 luc2P/GAL4UAS/Hygro reporter)
T1 sequence (P51449 269-508 limits assumed): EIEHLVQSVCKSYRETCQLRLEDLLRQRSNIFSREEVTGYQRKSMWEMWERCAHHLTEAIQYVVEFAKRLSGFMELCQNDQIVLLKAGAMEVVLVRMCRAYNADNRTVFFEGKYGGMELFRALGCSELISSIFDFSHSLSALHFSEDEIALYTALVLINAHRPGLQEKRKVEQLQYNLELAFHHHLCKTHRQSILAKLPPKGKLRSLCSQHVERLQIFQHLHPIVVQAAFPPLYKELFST
Procedure: A nuclear receptor transactivation assay was performed to quantitate the ability of test compounds to inhibit RORγt transactivation of a luciferase reporter. A similar assay is described in: Khan et al., Bioorganic & Medicinal Chemistry Letters 23 (2013), 532-536. The system uses transiently transfected HEK 293 cells cotransfected with two plasmids (pGL4.3, luc2P/GAL4UAS/Hygro, and pBIND, Gal4DBD hRORC LBD1-3). The positive control is co-transiently transfected with both plasmids, and the negative control contains the pGL4.3 promoter sequence. Assays were assembled in 384 well plates where transiently transfected cells and test compound at varying concentrations were incubated for 20-24 hours. The next day, assays plates are taken out and equilibrated at RT for 20-30 minutes. Bright-Glo™ Luciferase Assay System is used to detect Luciferase production. After addition of Bright GLO detection reagent, the plates were incubated at RT for 20 minutes. The plates were read on an Envision plate reader to measure luminescence signal. The RLU signal is converted to POC relative to control and blank wells.
Compound Dilution Buffer:
Bright Glo Luciferase Assay System: Promega #E2620
Thaw lysis buffer provided in kit, add 100 mL lysis buffer to substrate powder.

SMILES | IC50
CCCC1(C)CN(C(=O)NCc2ccc(S(=O)(=O)NC)cc2)c2ccc(-c3ccc(F)cc3C)cc21 (stereo not drawn) [Example 65] | 1500 nM
CNS(=O)(=O)c1ccc(CNC(=O)N2CC3(CCCC3)c3cc(-c4ccc(OC)nc4C)ccc32)cc1 [Example 68] | 1900 nM
CCS(=O)(=O)c1ccc(CNC(=O)N2CC3(CCCC3)c3cc(-c4ccc(CO)cc4C)ccc32)cc1 [Example 69] | 1100 nM
CCS(=O)(=O)c1ccc(CNC(=O)N2CC3(CCCC3)c3cc(-c4ccc(C)cc4C#N)ccc32)cc1 [Example 70] | 1300 nM
CCS(=O)(=O)c1ccc(CNC(=O)N2CC3(CCCC3)c3cc(-c4cc(F)ccc4CC#N)ccc32)cc1 [Example 72] | 1200 nM
CCS(=O)(=O)c1ccc(CNC(=O)N2CC3(CCCC3)c3cc(-c4cncnc4C(C)C)ccc32)cc1 [Example 76] | 610 nM
CNS(=O)(=O)c1ccc(CNC(=O)N2CC3(CCCC3)c3cc(-c4cccc(F)c4C)ccc32)cc1 [Example 77] | 760 nM
CNS(=O)(=O)c1ccc(CNC(=O)N2CC3(CCCC3)c3cc(-c4cc(F)ccc4C(=O)OC)ccc32)cc1 [Example 79] | 940 nM
CCOC(=O)c1ccc(F)cc1-c1ccc2c(c1)C1(CCCC1)CN2C(=O)NCc1ccc(S(=O)(=O)NC)cc1 [Example 80] | 970 nM
CNS(=O)(=O)c1ccc(CNC(=O)N2CC3(CCCC3)c3cc(-c4cc(C)c(OC)cc4C)ccc32)cc1 [Example 83] | 370 nM
CNS(=O)(=O)c1ccc(CNC(=O)N2CC3(CCCC3)c3cc(-c4ccc(F)cc4C(=O)OC)ccc32)cc1 [Example 85] | 1300 nM
CNS(=O)(=O)c1ccc(CNC(=O)N2CC3(CCCC3)c3cc(-c4ccccc4C(C)(C)O)ccc32)cc1 [Example 86] | 1000 nM
CNS(=O)(=O)c1ccc(CNC(=O)N2CC3(CCCC3)c3cc(-c4c(C)cc(CO)cc4C)ccc32)cc1 [Example 89] | 990 nM
CNS(=O)(=O)c1ccc(CNC(=O)N2CC3(CCCC3)c3cc(-c4c(C)ccc(F)c4CC#N)ccc32)cc1 [Example 90] | 580 nM
CNS(=O)(=O)c1ccc(CNC(=O)N2CC3(CCCC3)c3cc(-c4c(C)cccc4C#N)ccc32)cc1 [Example 91] | 870 nM
CNS(=O)(=O)c1ccc(CNC(=O)N2CC3(CCCC3)c3cc(-c4cc(F)c(C#N)cc4C)ccc32)cc1 [Example 93] | 1200 nM
CNS(=O)(=O)c1ccc(CNC(=O)N2CC3(CCCC3)c3cc(C4=C(C)CCCC4)ccc32)cc1 [Example 95] | 340 nM
COc1ccc(-c2ccc3c(c2)C2(CCCC2)CN3C(=O)NCc2ccc(C#N)cc2OC)c(C(F)(F)F)c1 [Example 96] | 450 nM
COc1ccc(-c2ccc3c(c2)C2(CCCC2)CN3C(=O)NCc2ccc(C#N)c(C)c2)c(C(F)(F)F)c1 [Example 97] | 770 nM

SMILES | IC50
CNS(=O)(=O)c1ccc(CNC(=O)N2CC3(CCCC3)c3cc(-c4cc(CN)ccc4C)ccc32)cc1 [Example 98] | 1200 nM
COCCOc1cc(C#N)ccc1CNC(=O)N1CC2(CCCC2)c2cc(-c3ccc(OC)cc3C(F)(F)F)ccc21 [Example 100] | 1200 nM
COCCOc1cc(S(C)(=O)=O)ccc1CNC(=O)N1CC2(CCCC2)c2cc(-c3ccc(OC)cc3C(F)(F)F)ccc21 [Example 101] | 1100 nM
CNS(=O)(=O)c1ccc(CNC(=O)N2CC3(CCCC3)c3cc(-c4cc(CN5CCC(O)C5)ccc4C)ccc32)cc1 (stereo not drawn) [Example 103] | 1800 nM
CN(C)c1ncc(-c2ccc3c(c2)C2(CCCC2)CN3C(=O)NCc2ccc(S(C)(=O)=O)cc2)c(C(F)(F)F)n1 [Example 106] | 650 nM
CCC(C)c1ncncc1-c1ccc2c(c1)C1(CCCC1)CN2C(=O)NCc1ccc(S(C)(=O)=O)cc1 (stereo not drawn) [Example 107] | 1500 nM
COc1ncnc(C)c1-c1ccc2c(c1)C1(CCCC1)CN2C(=O)NCc1ccc(S(C)(=O)=O)cc1 [Example 109] | 1700 nM
COc1ncnc(C(F)(F)F)c1-c1ccc2c(c1)C1(CCCC1)CN2C(=O)NCc1ccc(S(C)(=O)=O)cc1 [Example 110] | 600 nM
CCS(=O)(=O)c1ccc(CNC(=O)N2CC3(CCCC3)c3cc(-c4cnc(N)nc4C(F)(F)F)ccc32)cc1 [Example 111] | 1700 nM
CCS(=O)(=O)c1ccc(CNC(=O)N2CC3(CCCC3)c3cc(-c4c(OC)ncnc4C4CC4)ccc32)cc1 [Example 112] | 520 nM
CCS(=O)(=O)c1ccc(CNC(=O)N2CC(C)(C3CC3)c3cc(-c4cncnc4C(C)C)ccc32)cc1 (stereo not drawn) [Example 113] | 530 nM
CCS(=O)(=O)c1ccc(CNC(=O)N2CC(C)(C3CCC3)c3cc(-c4c(OC)ncnc4C4CC4)ccc32)cc1 (stereo not drawn) [Example 117] | 480 nM
CCS(=O)(=O)c1ccc(CNC(=O)N2CC3(CCCC3)c3cc(-c4cnc(N(C)C)nc4C4CC4)ccc32)cc1 [Example 119] | 320 nM
CCS(=O)(=O)c1ccc(CNC(=O)N2CC(C)(C3CC3)c3cc(-c4c(OC)ncnc4C4CC4)ccc32)cc1 (stereo not drawn) [Example 120] | 280 nM
CCS(=O)(=O)c1ccc(CNC(=O)N2CC3(CCCC3)c3cc(-c4c(OC)ncnc4OC)ccc32)cc1 [Example 121] | 600 nM
CCS(=O)(=O)c1ccc(CNC(=O)N2CC3(CCCC3)c3cc(-c4cc(CN5CCC(C#N)CC5)ccc4C)ccc32)cc1 [Example 123] | 600 nM
CCS(=O)(=O)c1ccc(CNC(=O)N2CC3(CCCC3)c3cc(-c4cc(CN5CCS(=O)(=O)CC5)ccc4C)ccc32)cc1 [Example 124] | 1400 nM
CCS(=O)(=O)c1ccc(CNC(=O)N2C[C@@](C)(C3CC3)c3cc(-c4c(OC)ncnc4C4CC4)ccc32)cc1 [Example 126] | 400 nM

Continued by falling IC50, values first:

IC50 | SMILES
1600 nM | COc1ncc(-c2ccc3c(c2)C2(CCCC2)CN3C(=O)NCc2ccc(S(C)(=O)=O)cc2)c(C2CC2)n1 [Example 108]
1400 nM | CNS(=O)(=O)c1ccc(CNC(=O)N2CC3(CCCC3)c3cc(Oc4cc(OC)ccc4C)ccc32)cc1 [Example 63]
1100 nM | COc1ccc(-c2ccc3c(c2)C2(CCCC2)CN3C(=O)NCc2ccc(C#N)cc2)c(C(F)(F)F)c1 [Example 82]
1100 nM | CNS(=O)(=O)c1ccc(CNC(=O)N2CC3(CCCC3)c3cc(-c4cc(O)ccc4C)ccc32)cc1 [Example 92]
1100 nM | CCS(=O)(=O)c1ccc(CNC(=O)N2CC3(CCCC3)c3cc(-c4c(OC)nc(C)nc4C4CC4)ccc32)cc1 [Example 122]
1100 nM | CCS(=O)(=O)c1ccc(CNC(=O)N2CC3(CC3)c3cc(-c4c(OC)ncnc4C4CC4)ccc32)cc1 [Example 125]
1000 nM | CCS(=O)(=O)c1ccc(CNC(=O)N2CC(C)(C3CCC3)c3cc(-c4cncnc4C(C)C)ccc32)cc1 (stereo not drawn) [Example 116]
980 nM | CNS(=O)(=O)c1ccc(CNC(=O)N2CC3(CCCC3)c3cc(-c4ccccc4COC(C)(C)C)ccc32)cc1 [Example 81]
910 nM | CNS(=O)(=O)c1ccc(CNC(=O)N2CC3(CCCC3)c3cc(-c4ccc(O)cc4C#N)ccc32)cc1 [Example 88]
790 nM | CCS(=O)(=O)c1ccc(CNC(=O)N2CC3(CCCC3)c3cc(-c4ccccc4-c4cnco4)ccc32)cc1 [Example 78]
740 nM | CCS(=O)(=O)c1ccc(CNC(=O)N2CC3(CCCC3)c3cc(-c4ccc(C#N)cc4C)ccc32)cc1 [Example 71]
680 nM | CNS(=O)(=O)c1ccc(CNC(=O)N2CC3(CCCC3)c3cc(-c4ccccc4CC(F)(F)F)ccc32)cc1 [Example 87]
500 nM | CCS(=O)(=O)c1ccc(CNC(=O)N2CC3(CCCC3)c3cc(-c4c(C)ccnc4OC)ccc32)cc1 [Example 114]
500 nM | CCS(=O)(=O)c1ccc(CNC(=O)N2C[C@](C)(C3CC3)c3cc(-c4c(OC)ncnc4C4CC4)ccc32)cc1 [Example 127]
470 nM | CCCC1(C)CN(C(=O)NCc2ccc(S(=O)(=O)NC)cc2)c2ccc(-c3ccc(OC)cc3C(F)(F)F)cc21 (stereo not drawn) [Example 64]
470 nM | CCC1(C2CC2)CN(C(=O)NCc2ccc(S(=O)(=O)CC)cc2)c2ccc(-c3c(OC)ncnc3C3CC3)cc21 (stereo not drawn) [Example 118]
460 nM | CNS(=O)(=O)c1ccc(CNC(=O)N2CC3(CCCC3)c3cc(-c4ccccc4OC(F)(F)F)ccc32)cc1 [Example 73]
430 nM | COc1ccc(-c2ccc3c(c2)C2(CCCC2)CN3C(=O)NCc2ccc(S(C)(=O)=O)cc2OC)c(C(F)(F)F)c1 [Example 105]
410 nM | CCS(=O)(=O)c1ccc(CNC(=O)N2CC3(CCCC3)c3cc(-c4ccc(OC)cc4C(F)(F)F)ccc32)cc1 [Example 66]
410 nM | CCS(=O)(=O)c1ccc(CNC(=O)N2CC3(CCCC3)c3cc(-c4ccc(O)cc4C)ccc32)cc1 [Example 67]
350 nM | CCS(=O)(=O)c1ccc(CNC(=O)N2CC3(CCCC3)c3cc(-c4ccc(OC)cc4C(F)(F)F)ccc32)c(OC)c1 [Example 104]
180 nM | COc1cc(C#N)ccc1CNC(=O)N1CC2(CCCC2)c2cc(-c3ccc(O)cc3C(F)(F)F)ccc21 [Example 102]
140 nM | CNS(=O)(=O)c1ccc(CNC(=O)N2CC3(CCCC3)c3cc(-c4c(F)cccc4C(F)(F)F)ccc32)cc1 [Example 75]
